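Following 48 hours of exposure in 96-well plates, responses at five concentrations were used to interpolate endpoints linearly. TGI is the concentration that stops growth completely.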
Legend:
Assay in all cases: DTP human tumour cell line panel, 48 h
[1] = tested on: 786-0 renal
[2] = tested on: A549 NSCLC
[3] = tested on: BT-549 breast
[4] = tested on: CCRF-CEM leukemia
[5] = tested on: COLO 205 colon
[6] = tested on: DU-145 prostate
[7] = tested on: EKVX NSCLC
[8] = tested on: HCC-2998 colon
[9] = tested on: HCT-116 colon
[10] = tested on: HCT-15 colon
[11] = tested on: HL-60(TB) leukemia
[12] = tested on: HOP-62 NSCLC
[13] = tested on: HOP-92 NSCLC
[14] = tested on: HT29 colon
[15] = tested on: IGROV1 ovarian
[16] = tested on: K-562 leukemia
[17] = tested on: KM12 colon
[18] = tested on: LOX IMVI melanoma
[19] = tested on: M14 melanoma
[20] = tested on: MCF7 breast
[21] = tested on: MDA-MB-231 breast
[22] = tested on: MDA-MB-435
[23] = tested on: MDA-N
[24] = tested on: MOLT-4 leukemia
[25] = tested on: NCI-H23 lung
[26] = tested on: NCI-H460 lung
[27] = tested on: NCI-H522 lung
[28] = tested on: NCI/ADR-RES ovarian
[29] = tested on: OVCAR-3 ovarian
[30] = tested on: OVCAR-4 ovarian
[31] = tested on: OVCAR-5 ovarian
[32] = tested on: OVCAR-8 ovarian
[33] = tested on: PC-3 prostate
[34] = tested on: SF-268 CNS
[35] = tested on: SF-295 CNS
[36] = tested on: SF-539 CNS
[37] = tested on: SK-MEL-28 melanoma
[38] = tested on: SK-MEL-5 melanoma
[39] = tested on: SK-OV-3 ovarian
[40] = tested on: SN12C renal
[41] = tested on: SNB-19 CNS
[42] = tested on: SNB-75 CNS
[43] = tested on: SR leukemia
[44] = tested on: SW-620 colon
[45] = tested on: T-47D breast
[46] = tested on: TK-10 renal
[47] = tested on: U251 CNS
[48] = tested on: UACC-257 melanoma
[49] = tested on: UACC-62 melanoma
[50] = tested on: UO-31 renal
[51] = tested on: A498 renal
[52] = tested on: ACHN renal
[53] = tested on: CAKI-1 renal
[54] = tested on: NCI-H226 lung
[55] = tested on: RPMI-8226 leukemia
[56] = tested on: SK-MEL-2 melanoma
[57] = tested on: MALME-3M melanoma
[58] = tested on: RXF 393 renal

**Q.** What does the source list for `COc1cccc(-c2nc(-c3cnccn3)n(C3OC(CO)C(O)C3O)n2)c1` (stereo not drawn)?
**A.** TGI [1]: > 100 µM; TGI [2]: > 100 µM; TGI [3]: > 100 µM; TGI [4]: > 100 µM; TGI [5]: > 100 µM; TGI [6]: > 100 µM; TGI [7]: > 100 µM; TGI [8]: > 100 µM; TGI [9]: > 100 µM; TGI [10]: > 100 µM; TGI [11]: > 100 µM; TGI [12]: > 100 µM; TGI [13]: > 100 µM; TGI [14]: > 100 µM; TGI [15]: > 100 µM; TGI [16]: > 100 µM; TGI [17]: > 100 µM; TGI [18]: > 100 µM; TGI [19]: > 100 µM; TGI [20]: > 100 µM; TGI [21]: > 100 µM; TGI [22]: > 100 µM; TGI [23]: > 100 µM; TGI [24]: > 100 µM; TGI [25]: > 100 µM; TGI [26]: > 100 µM; TGI [27]: > 100 µM; TGI [28]: > 100 µM; TGI [29]: > 100 µM; TGI [30]: > 100 µM; TGI [31]: > 100 µM; TGI [32]: > 100 µM; TGI [33]: > 100 µM; TGI [34]: > 100 µM; TGI [35]: > 100 µM; TGI [36]: > 100 µM; TGI [37]: > 100 µM; TGI [38]: > 100 µM; TGI [39]: > 100 µM; TGI [40]: > 100 µM; TGI [41]: > 100 µM; TGI [42]: > 100 µM; TGI [43]: > 100 µM; TGI [44]: > 100 µM; TGI [45]: > 100 µM; TGI [46]: > 100 µM; TGI [47]: > 100 µM; TGI [48]: > 100 µM; TGI [49]: > 100 µM; TGI [50]: > 100 µM

**Q.** Which TGI [1] does the source give for `CS(=O)(=O)OCOS(C)(=O)=O` here?
**A.** > 100 µM

**Q.** And the TGI [51]?
**A.** > 100 µM

**Q.** What about the TGI [2] of the same molecule?
**A.** > 100 µM

**Q.** And the TGI [52]?
**A.** > 100 µM

**Q.** What about the TGI [3] of the same molecule?
**A.** > 100 µM

**Q.** What about the TGI [53] of the same molecule?
**A.** > 100 µM

**Q.** What about the TGI [4] of the same molecule?
**A.** 44.5 µM

**Q.** What about the TGI [5] of the same molecule?
**A.** > 100 µM

**Q.** What about the TGI [6] of the same molecule?
**A.** > 100 µM

**Q.** What about the TGI [7] of the same molecule?
**A.** > 100 µM

**Q.** And the TGI [8]?
**A.** > 100 µM

**Q.** And the TGI [9]?
**A.** > 100 µM

**Q.** What about the TGI [10] of the same molecule?
**A.** > 100 µM

**Q.** What about the TGI [11] of the same molecule?
**A.** > 100 µM

**Q.** What about the TGI [12] of the same molecule?
**A.** > 100 µM

**Q.** And the TGI [13]?
**A.** > 100 µM

**Q.** And the TGI [14]?
**A.** > 100 µM

**Q.** And the TGI [15]?
**A.** > 100 µM

**Q.** And the TGI [16]?
**A.** > 100 µM

**Q.** And the TGI [17]?
**A.** > 100 µM

**Q.** What about the TGI [18] of the same molecule?
**A.** > 100 µM

**Q.** And the TGI [19]?
**A.** > 100 µM

**Q.** And the TGI [20]?
**A.** > 100 µM

**Q.** What about the TGI [21] of the same molecule?
**A.** > 100 µM

**Q.** What about the TGI [22] of the same molecule?
**A.** > 100 µM

**Q.** What about the TGI [23] of the same molecule?
**A.** > 100 µM

**Q.** And the TGI [24]?
**A.** > 100 µM

**Q.** What about the TGI [54] of the same molecule?
**A.** > 100 µM

**Q.** And the TGI [25]?
**A.** > 100 µM

**Q.** And the TGI [26]?
**A.** > 100 µM

**Q.** What about the TGI [28] of the same molecule?
**A.** > 100 µM

**Q.** And the TGI [29]?
**A.** > 100 µM

**Q.** What about the TGI [30] of the same molecule?
**A.** > 100 µM

**Q.** And the TGI [31]?
**A.** > 100 µM

**Q.** And the TGI [32]?
**A.** > 100 µM

**Q.** What about the TGI [33] of the same molecule?
**A.** > 100 µM

**Q.** And the TGI [55]?
**A.** > 100 µM

**Q.** What about the TGI [35] of the same molecule?
**A.** > 100 µM

**Q.** And the TGI [36]?
**A.** > 100 µM

**Q.** What about the TGI [56] of the same molecule?
**A.** > 100 µM

**Q.** And the TGI [37]?
**A.** > 100 µM

**Q.** And the TGI [38]?
**A.** > 100 µM

**Q.** And the TGI [39]?
**A.** > 100 µM

**Q.** And the TGI [40]?
**A.** > 100 µM

**Q.** What about the TGI [41] of the same molecule?
**A.** > 100 µM

**Q.** What about the TGI [43] of the same molecule?
**A.** 47.9 µM

**Q.** What about the TGI [44] of the same molecule?
**A.** > 100 µM

**Q.** What about the TGI [46] of the same molecule?
**A.** > 100 µM

**Q.** What about the TGI [47] of the same molecule?
**A.** > 100 µM

**Q.** What about the TGI [48] of the same molecule?
**A.** > 100 µM

**Q.** What about the TGI [49] of the same molecule?
**A.** > 100 µM

**Q.** And the TGI [50]?
**A.** > 100 µM

**Q.** Which TGI [1] does the source give for `[N-]=[N+]=CC(=O)OC1CCOCC1` here?
**A.** > 100 µM

**Q.** What about the TGI [51] of the same molecule?
**A.** > 100 µM

**Q.** What about the TGI [52] of the same molecule?
**A.** > 100 µM

**Q.** And the TGI [3]?
**A.** > 100 µM

**Q.** What about the TGI [53] of the same molecule?
**A.** > 100 µM

**Q.** What about the TGI [4] of the same molecule?
**A.** > 100 µM

**Q.** And the TGI [5]?
**A.** > 100 µM

**Q.** And the TGI [6]?
**A.** > 100 µM

**Q.** What about the TGI [7] of the same molecule?
**A.** > 100 µM

**Q.** What about the TGI [8] of the same molecule?
**A.** > 100 µM

**Q.** What about the TGI [9] of the same molecule?
**A.** > 100 µM

**Q.** What about the TGI [10] of the same molecule?
**A.** > 100 µM

**Q.** What about the TGI [11] of the same molecule?
**A.** > 100 µM

**Q.** And the TGI [12]?
**A.** > 100 µM

**Q.** What about the TGI [13] of the same molecule?
**A.** > 100 µM

**Q.** What about the TGI [14] of the same molecule?
**A.** > 100 µM

**Q.** What about the TGI [15] of the same molecule?
**A.** > 100 µM

**Q.** And the TGI [16]?
**A.** > 100 µM

**Q.** And the TGI [17]?
**A.** > 100 µM

**Q.** And the TGI [18]?
**A.** > 100 µM

**Q.** And the TGI [57]?
**A.** > 100 µM

**Q.** And the TGI [20]?
**A.** > 100 µM

**Q.** And the TGI [21]?
**A.** > 100 µM

**Q.** What about the TGI [22] of the same molecule?
**A.** > 100 µM

**Q.** What about the TGI [23] of the same molecule?
**A.** > 100 µM

**Q.** What about the TGI [24] of the same molecule?
**A.** > 100 µM

**Q.** What about the TGI [54] of the same molecule?
**A.** > 100 µM

**Q.** And the TGI [25]?
**A.** > 100 µM

**Q.** And the TGI [26]?
**A.** > 100 µM

**Q.** What about the TGI [27] of the same molecule?
**A.** > 100 µM

**Q.** And the TGI [29]?
**A.** > 100 µM

**Q.** And the TGI [30]?
**A.** > 100 µM

**Q.** What about the TGI [31] of the same molecule?
**A.** > 100 µM

**Q.** What about the TGI [33] of the same molecule?
**A.** > 100 µM

**Q.** And the TGI [55]?
**A.** > 100 µM

**Q.** And the TGI [58]?
**A.** > 100 µM

**Q.** And the TGI [34]?
**A.** > 100 µM

**Q.** And the TGI [35]?
**A.** > 100 µM

**Q.** And the TGI [56]?
**A.** > 100 µM

**Q.** What about the TGI [37] of the same molecule?
**A.** > 100 µM

**Q.** What about the TGI [38] of the same molecule?
**A.** > 100 µM

**Q.** What about the TGI [39] of the same molecule?
**A.** > 100 µM

**Q.** And the TGI [40]?
**A.** > 100 µM

**Q.** What about the TGI [41] of the same molecule?
**A.** > 100 µM

**Q.** What about the TGI [43] of the same molecule?
**A.** > 100 µM

**Q.** What about the TGI [44] of the same molecule?
**A.** > 100 µM

**Q.** And the TGI [46]?
**A.** > 100 µM

**Q.** What about the TGI [47] of the same molecule?
**A.** > 100 µM

**Q.** And the TGI [48]?
**A.** > 100 µM

**Q.** What about the TGI [49] of the same molecule?
**A.** > 100 µM

**Q.** What about the TGI [50] of the same molecule?
**A.** > 100 µM
